Where “and” joins values, the source holds several entries; their conditions need not be identical. Equal entries are not always repeated. Where two headings read alike, the source gives them in different places. Each block holds one compound with its values, some of them ahead of it.
What was measured:
[1] = assay type: physicochemical
[2] = tested on: glutamate-induced 45Ca2+ uptake into synaptosomes of rat brain cortex; assay: Effect on glutamate-induced 45Ca2+ uptake into synaptosomes of rat brain cortex; assay type: biochemical, Wistar rats; settings: for Percentage 45Ca2+ of Control (Control – 100%): 200 μM glutamate, 5 min, 37 °C; for overall inhibiting activity on calcium ion uptake, in words: whole concentration range 0.01–100 μM

mole fraction solubility (x) ([1]; 1-octanol, 293.15 K): 0.71 x · 10^4 | A, parameter of the correlation equation lnx=A-B/T ([1]; 1-octanol, 293.15–313.15 K): 7.10 ± 0.15 | B, parameter of the correlation equation lnx=A-B/T ([1]; 1-octanol, 293.15–313.15 K): 4876 ± 47 | mole fraction solubility (x) ([1]; 1-octanol, 298.15 K): 0.93 x · 10^4 | ΔGsol0, standard molar dissolution Gibbs energy ([1]; 1-octanol, 298.15 K): 23.0 kJ/mol | ΔHsol0, standard molar dissolution enthalpy ([1]; 1-octanol, 298.15 K): 40.5 kJ/mol | ΔSsol0, standard molar dissolution entropy ([1]; 1-octanol, 298.15 K): 58.7 J/mol⋅K | mole fraction solubility (x) ([1]; 1-octanol, 303.15 K): 1.22 x · 10^4 | mole fraction solubility (x) ([1]; 1-octanol, 308.15 K): 1.61 x · 10^4 | mole fraction solubility (x) ([1]; 1-octanol, 313.15 K): 2.05 x · 10^4 | mole fraction solubility (x) ([1]; Buffer pH 7.4, 293.15 K): 5.57 x · 10^6 | A, parameter of the correlation equation lnx=A-B/T ([1]; Buffer pH 7.4, 293.15–313.15 K): −2.82 ± 0.09 | B, parameter of the correlation equation lnx=A-B/T ([1]; Buffer pH 7.4, 293.15–313.15 K): 2719 ± 29 | mole fraction solubility (x) ([1]; Buffer pH 7.4, 298.15 K): 6.55 x · 10^6 | ΔGsol0, standard molar dissolution Gibbs energy ([1]; Buffer pH 7.4, 298.15 K): 29.6 kJ/mol | ΔHsol0, standard molar dissolution enthalpy ([1]; Buffer pH 7.4, 298.15 K): 22.6 kJ/mol | ΔSsol0, standard molar dissolution entropy ([1]; Buffer pH 7.4, 298.15 K): –23.4 J/mol⋅K | mole fraction solubility (x) ([1]; Buffer pH 7.4, 303.15 K): 7.53 x · 10^6 | mole fraction solubility (x) ([1]; Buffer pH 7.4, 308.15 K): 8.77 x · 10^6 | mole fraction solubility (x) ([1]; Buffer pH 7.4, 313.15 K): 10.09 x · 10^6 | mole fraction solubility (x) ([1]; Hexane, 293.15 K): 3.30 x · 10^5 | A, parameter of the correlation equation lnx=A-B/T ([1]; Hexane, 293.15–313.15 K): −2.93 ± 0.14 | B, parameter of the correlation equation lnx=A-B/T ([1]; Hexane, 293.15–313.15 K): 2165 ± 43 | mole fraction solubility (x) ([1]; Hexane, 298.15 K): 3.71 x · 10^5 | ΔGsol0, standard molar dissolution Gibbs energy ([1]; Hexane, 298.15 K): 25.3 kJ/mol | ΔHsol0, standard molar dissolution enthalpy ([1]; Hexane, 298.15 K): 18.0 kJ/mol | ΔSsol0, standard molar dissolution entropy ([1]; Hexane, 298.15 K): -24.5 J/mol⋅K | mole fraction solubility (x) ([1]; Hexane, 303.15 K): 4.18 x · 10^5 | mole fraction solubility (x) ([1]; Hexane, 308.15 K): 4.68 x · 10^5 | mole fraction solubility (x) ([1]; Hexane, 313.15 K): 5.31 x · 10^5
Compound: COc1ccc2c(c1)c1c(n2CCc2n[nH]c(=S)n2C)CCN(C)C1 [III, 5-[2-(8-Methoxy-2-methyl-1,2,3,4-tetrahydropyrido[4,3-b]indol-5-yl)ethyl]-4-methyl-2,4-dihydro[1,2,4]triazole-3-thione]
Percentage 45Ca2+ of Control (Control – 100%) ([2]; compound 0.01 μM): 86.7 ± 4.0% | Percentage 45Ca2+ of Control (Control – 100%) ([2]; compound 0.1 μM): 57.5 ± 8.3% | Percentage 45Ca2+ of Control (Control – 100%) ([2]; compound 0.5 μM): 83.0 ± 7.9% | Percentage 45Ca2+ of Control (Control – 100%) ([2]; compound 1 μM): 83.4 ± 12.7% | Percentage 45Ca2+ of Control (Control – 100%) ([2]; compound 5 μM): 86.6 ± 4.5% | Percentage 45Ca2+ of Control (Control – 100%) ([2]; compound 10 μM): 85.8 ± 15.2% | Percentage 45Ca2+ of Control (Control – 100%) ([2]; compound 50 μM): 93.1 ± 12.8% | Percentage 45Ca2+ of Control (Control – 100%) ([2]; compound 100 μM): 96.1 ± 13.2% | maximal effect on calcium ion uptake (inhibiting ability) ([2]; concentration of 0.1 μM): 42.5% | inhibition of glutamate-induced calcium ion uptake ([2]; concentration of 1 μM): ~17% | overall inhibiting activity on calcium ion uptake, in words [2]: highest inhibiting activity within a wide concentration range (0.01–10 μM)

mole fraction solubility (x) ([1]; 1-octanol, 293.15 K): 1.15 x · 10^4 | A, parameter of the correlation equation lnx=A-B/T ([1]; 1-octanol, 293.15–313.15 K): 6.03 ± 0.15 | B, parameter of the correlation equation lnx=A-B/T ([1]; 1-octanol, 293.15–313.15 K): 4423 ± 47 | mole fraction solubility (x) ([1]; 1-octanol, 298.15 K): 1.47 x · 10^4 | ΔGsol0, standard molar dissolution Gibbs energy ([1]; 1-octanol, 298.15 K): 21.9 kJ/mol | ΔHsol0, standard molar dissolution enthalpy ([1]; 1-octanol, 298.15 K): 36.8 kJ/mol | ΔSsol0, standard molar dissolution entropy ([1]; 1-octanol, 298.15 K): 50.0 J/mol⋅K | mole fraction solubility (x) ([1]; 1-octanol, 303.15 K): 1.91 x · 10^4 | mole fraction solubility (x) ([1]; 1-octanol, 308.15 K): 2.42 x · 10^4 | mole fraction solubility (x) ([1]; 1-octanol, 313.15 K): 3.01 x · 10^4 | mole fraction solubility (x) ([1]; Buffer pH 7.4, 293.15 K): 2.66 x · 10^6 | A, parameter of the correlation equation lnx=A-B/T ([1]; Buffer pH 7.4, 293.15–313.15 K): 0.12 ± 0.16 | B, parameter of the correlation equation lnx=A-B/T ([1]; Buffer pH 7.4, 293.15–313.15 K): 3799 ± 50 | mole fraction solubility (x) ([1]; Buffer pH 7.4, 298.15 K): 3.25 x · 10^6 | ΔGsol0, standard molar dissolution Gibbs energy ([1]; Buffer pH 7.4, 298.15 K): 30.7 kJ/mol | ΔHsol0, standard molar dissolution enthalpy ([1]; Buffer pH 7.4, 298.15 K): 31.6 kJ/mol | ΔSsol0, standard molar dissolution entropy ([1]; Buffer pH 7.4, 298.15 K): 2.9 J/mol⋅K | mole fraction solubility (x) ([1]; Buffer pH 7.4, 303.15 K): 4.01 x · 10^6 | mole fraction solubility (x) ([1]; Buffer pH 7.4, 308.15 K): 4.95 x · 10^6 | mole fraction solubility (x) ([1]; Buffer pH 7.4, 313.15 K): 6.07 x · 10^6 | mole fraction solubility (x) ([1]; Hexane, 293.15 K): 5.42 x · 10^4 | A, parameter of the correlation equation lnx=A-B/T ([1]; Hexane, 293.15–313.15 K): 2.45 ± 0.12 | B, parameter of the correlation equation lnx=A-B/T ([1]; Hexane, 293.15–313.15 K): 2922 ± 38 | mole fraction solubility (x) ([1]; Hexane, 298.15 K): 6.39 x · 10^4 | ΔGsol0, standard molar dissolution Gibbs energy ([1]; Hexane, 298.15 K): 18.2 kJ/mol | ΔHsol0, standard molar dissolution enthalpy ([1]; Hexane, 298.15 K): 24.3 kJ/mol | ΔSsol0, standard molar dissolution entropy ([1]; Hexane, 298.15 K): 13.1 J/mol⋅K | mole fraction solubility (x) ([1]; Hexane, 303.15 K): 7.47 x · 10^4 | mole fraction solubility (x) ([1]; Hexane, 308.15 K): 8.87 x · 10^4 | mole fraction solubility (x) ([1]; Hexane, 313.15 K): 10.22 x · 10^4
Compound: CN1CCc2c(c3cc(Cl)ccc3n2CCc2n[nH]c(=S)n2C)C1 [V, 5-[2-(8-Chloro-2-methyl-1,2,3,4-tetrahydropyrido[4,3-b]indol-5-yl)ethyl]-4-methyl-2,4-dihydro[1,2,4]triazole-3-thione]
Percentage 45Ca2+ of Control (Control – 100%) ([2]; compound 0.01 μM): 103.5 ± 7.7% | Percentage 45Ca2+ of Control (Control – 100%) ([2]; compound 0.1 μM): 95.3 ± 1.0% | Percentage 45Ca2+ of Control (Control – 100%) ([2]; compound 0.5 μM): 102.2 ± 6.3% | Percentage 45Ca2+ of Control (Control – 100%) ([2]; compound 1 μM): 94.5 ± 4.7% | Percentage 45Ca2+ of Control (Control – 100%) ([2]; compound 5 μM): 80.7 ± 10.5% | Percentage 45Ca2+ of Control (Control – 100%) ([2]; compound 10 μM): 75.6 ± 10.0% | Percentage 45Ca2+ of Control (Control – 100%) ([2]; compound 50 μM): 93.3 ± 11.0% | Percentage 45Ca2+ of Control (Control – 100%) ([2]; compound 100 μM): 135.5% and 135.5 ± 9.4% | inhibition of glutamate-induced calcium ion uptake, most efficient ([2]; concentration of 5–10 μM): ~20% | overall inhibiting activity on calcium ion uptake, in words [2]: weak inhibitors of calcium ion uptake

Source: paper PMC6128713 (Saudi Pharmaceutical Journal : SPJ, 2018)
